Source: article PMC6891286, “Towards the Development of an In vivo Chemical Probe for Cyclin G Associated Kinase (GAK)” (Molecules, 2019)

Key:
Test in all cases: KINOMEscan
Assay type in all cases: binding
Conditions in all cases: 35 at 1 µM; read-out: % inhibition
[1] = target: T1, ABL1(F317L)-nonphosphorylated (Homo sapiens, UniProt P00519, F317L)
T1 construct: purchased Eurofins DiscoverX (KINOMEscan)
Description: (§1) KinomeScan Assay on 35 was performed as previously described at EuroFins DiscoverX (Fremont, CA, USA).

BLK = target: T2, BLK (Homo sapiens, UniProt P51451)
T2 construct: purchased Eurofins DiscoverX (KINOMEscan)
Description: as §1

CDK4 = target: T3, CDK4 (Homo sapiens, UniProt P11802)
T3 construct: purchased Eurofins DiscoverX (KINOMEscan)
Description: as §1

CDK4-cyclinD3 = target: T4, CDK4-cyclinD3 (Homo sapiens, UniProt P11802)
T4 construct: purchased Eurofins DiscoverX (KINOMEscan)
Description: as §1

CDK9 = target: T5, CDK9 (Homo sapiens, UniProt P50750)
T5 construct: purchased Eurofins DiscoverX (KINOMEscan)
Description: as §1

CLK1 = target: T6, CLK1 (Homo sapiens, UniProt P49759)
T6 construct: purchased Eurofins DiscoverX (KINOMEscan)
Description: as §1

CSNK2A2 = target: T7, CSNK2A2 (Homo sapiens, UniProt P19784)
T7 construct: purchased Eurofins DiscoverX (KINOMEscan)
Description: as §1

DDR1 = target: T8, DDR1 (Homo sapiens, UniProt Q08345)
T8 construct: purchased Eurofins DiscoverX (KINOMEscan)
Description: as §1

EPHA5 = target: T9, EPHA5 (Homo sapiens, UniProt P54756)
T9 construct: purchased Eurofins DiscoverX (KINOMEscan)
Description: as §1

FLT3(N841I) = target: T10, FLT3(N841I) (Homo sapiens, UniProt P36888, N841I)
T10 construct: purchased Eurofins DiscoverX (KINOMEscan)
Description: as §1

ICK = target: T11, ICK (Homo sapiens, UniProt Q9UPZ9)
T11 construct: purchased Eurofins DiscoverX (KINOMEscan)
Description: as §1

[2] = target: T12, JAK1(JH1domain-catalytic) (Homo sapiens, UniProt P23458)
T12 construct: JAK1(JH1domain-catalytic); purchased Eurofins DiscoverX (KINOMEscan)
Description: as §1

MAP3K1 = target: T13, MAP3K1 (Homo sapiens, UniProt Q13233)
T13 construct: purchased Eurofins DiscoverX (KINOMEscan)
Description: as §1

MAP4K4 = target: T14, MAP4K4 (Homo sapiens, UniProt O95819)
T14 construct: purchased Eurofins DiscoverX (KINOMEscan)
Description: as §1

MARK3 = target: T15, MARK3 (Homo sapiens, UniProt P27448)
T15 construct: purchased Eurofins DiscoverX (KINOMEscan)
Description: as §1

MRCKB = target: T16, MRCKB (Homo sapiens, UniProt Q9Y5S2)
T16 construct: purchased Eurofins DiscoverX (KINOMEscan)
Description: as §1

MUSK = target: T17, MUSK (Homo sapiens, UniProt O15146)
T17 construct: purchased Eurofins DiscoverX (KINOMEscan)
Description: as §1

MYO3B = target: T18, MYO3B (Homo sapiens, UniProt Q8WXR4)
T18 construct: purchased Eurofins DiscoverX (KINOMEscan)
Description: as §1

NDR1 = target: T19, NDR1 (Homo sapiens, UniProt Q15208)
T19 construct: purchased Eurofins DiscoverX (KINOMEscan)
Description: as §1

NIM1 = target: T20, NIM1 (Homo sapiens, UniProt Q8IY84)
T20 construct: purchased Eurofins DiscoverX (KINOMEscan)
Description: as §1

PIK3C2G = target: T21, PIK3C2G (Homo sapiens, UniProt O75747)
T21 construct: purchased Eurofins DiscoverX (KINOMEscan)
Description: as §1

PIK3CA(C420R) = target: T22, PIK3CA(C420R) (Homo sapiens, UniProt P42336, C420R)
T22 construct: purchased Eurofins DiscoverX (KINOMEscan)
Description: as §1

PIK3CA(Q546K) = target: T23, PIK3CA(Q546K) (Homo sapiens, UniProt P42336, Q546K)
T23 construct: purchased Eurofins DiscoverX (KINOMEscan)
Description: as §1

PIM3 = target: T24, PIM3 (Homo sapiens, UniProt Q86V86)
T24 construct: purchased Eurofins DiscoverX (KINOMEscan)
Description: as §1

PKMYT1 = target: T25, PKMYT1 (Homo sapiens, UniProt Q99640)
T25 construct: purchased Eurofins DiscoverX (KINOMEscan)
Description: as §1

PLK1 = target: T26, PLK1 (Homo sapiens, UniProt P53350)
T26 construct: purchased Eurofins DiscoverX (KINOMEscan)
Description: as §1

PLK3 = target: T27, PLK3 (Homo sapiens, UniProt Q9H4B4)
T27 construct: purchased Eurofins DiscoverX (KINOMEscan)
Description: as §1

PRKCD = target: T28, PRKCD (Homo sapiens, UniProt Q05655)
T28 construct: purchased Eurofins DiscoverX (KINOMEscan)
Description: as §1

PRKCQ = target: T29, PRKCQ (Homo sapiens, UniProt Q04759)
T29 construct: purchased Eurofins DiscoverX (KINOMEscan)
Description: as §1

RET(M918T) = target: T30, RET(M918T) (Homo sapiens, UniProt P07949, M918T)
T30 construct: purchased Eurofins DiscoverX (KINOMEscan)
Description: as §1

ROCK1 = target: T31, ROCK1 (Homo sapiens, UniProt Q13464)
T31 construct: purchased Eurofins DiscoverX (KINOMEscan)
Description: as §1

[3] = target: T32, RSK3(Kin.Dom.1-N-terminal) (Homo sapiens, UniProt Q15349)
T32 construct: RSK3(Kin.Dom.1-N-terminal); purchased Eurofins DiscoverX (KINOMEscan)
Description: as §1

SRC = target: T33, SRC (Homo sapiens, UniProt P12931)
T33 construct: purchased Eurofins DiscoverX (KINOMEscan)
Description: as §1

STK36 = target: T34, STK36 (Homo sapiens, UniProt Q9NRP7)
T34 construct: purchased Eurofins DiscoverX (KINOMEscan)
Description: as §1

TAOK3 = target: T35, TAOK3 (Homo sapiens, UniProt Q9H2K8)
T35 construct: purchased Eurofins DiscoverX (KINOMEscan)
Description: as §1

TGFBR1 = target: T36, TGFBR1 (Homo sapiens, UniProt P36897)
T36 construct: purchased Eurofins DiscoverX (KINOMEscan)
Description: as §1

TIE2 = target: T37, TIE2 (Homo sapiens, UniProt Q02763)
T37 construct: purchased Eurofins DiscoverX (KINOMEscan)
Description: as §1

TNK2 = target: T38, TNK2 (Homo sapiens, UniProt Q07912)
T38 construct: purchased Eurofins DiscoverX (KINOMEscan)
Description: as §1

TSSK1B = target: T39, TSSK1B (Homo sapiens, UniProt Q9BXA7)
T39 construct: purchased Eurofins DiscoverX (KINOMEscan)
Description: as §1

TSSK3 = target: T40, TSSK3 (Homo sapiens, UniProt Q96PN8)
T40 construct: purchased Eurofins DiscoverX (KINOMEscan)
Description: as §1

ULK1 = target: T41, ULK1 (Homo sapiens, UniProt O75385)
T41 construct: purchased Eurofins DiscoverX (KINOMEscan)
Description: as §1

ZAK = target: T42, ZAK (Homo sapiens, UniProt Q9NYL2)
T42 construct: purchased EuroFins DiscoverX (Fremont, CA, USA)
Description: as §1

T16 sequence (Q9Y5S2 whole entry): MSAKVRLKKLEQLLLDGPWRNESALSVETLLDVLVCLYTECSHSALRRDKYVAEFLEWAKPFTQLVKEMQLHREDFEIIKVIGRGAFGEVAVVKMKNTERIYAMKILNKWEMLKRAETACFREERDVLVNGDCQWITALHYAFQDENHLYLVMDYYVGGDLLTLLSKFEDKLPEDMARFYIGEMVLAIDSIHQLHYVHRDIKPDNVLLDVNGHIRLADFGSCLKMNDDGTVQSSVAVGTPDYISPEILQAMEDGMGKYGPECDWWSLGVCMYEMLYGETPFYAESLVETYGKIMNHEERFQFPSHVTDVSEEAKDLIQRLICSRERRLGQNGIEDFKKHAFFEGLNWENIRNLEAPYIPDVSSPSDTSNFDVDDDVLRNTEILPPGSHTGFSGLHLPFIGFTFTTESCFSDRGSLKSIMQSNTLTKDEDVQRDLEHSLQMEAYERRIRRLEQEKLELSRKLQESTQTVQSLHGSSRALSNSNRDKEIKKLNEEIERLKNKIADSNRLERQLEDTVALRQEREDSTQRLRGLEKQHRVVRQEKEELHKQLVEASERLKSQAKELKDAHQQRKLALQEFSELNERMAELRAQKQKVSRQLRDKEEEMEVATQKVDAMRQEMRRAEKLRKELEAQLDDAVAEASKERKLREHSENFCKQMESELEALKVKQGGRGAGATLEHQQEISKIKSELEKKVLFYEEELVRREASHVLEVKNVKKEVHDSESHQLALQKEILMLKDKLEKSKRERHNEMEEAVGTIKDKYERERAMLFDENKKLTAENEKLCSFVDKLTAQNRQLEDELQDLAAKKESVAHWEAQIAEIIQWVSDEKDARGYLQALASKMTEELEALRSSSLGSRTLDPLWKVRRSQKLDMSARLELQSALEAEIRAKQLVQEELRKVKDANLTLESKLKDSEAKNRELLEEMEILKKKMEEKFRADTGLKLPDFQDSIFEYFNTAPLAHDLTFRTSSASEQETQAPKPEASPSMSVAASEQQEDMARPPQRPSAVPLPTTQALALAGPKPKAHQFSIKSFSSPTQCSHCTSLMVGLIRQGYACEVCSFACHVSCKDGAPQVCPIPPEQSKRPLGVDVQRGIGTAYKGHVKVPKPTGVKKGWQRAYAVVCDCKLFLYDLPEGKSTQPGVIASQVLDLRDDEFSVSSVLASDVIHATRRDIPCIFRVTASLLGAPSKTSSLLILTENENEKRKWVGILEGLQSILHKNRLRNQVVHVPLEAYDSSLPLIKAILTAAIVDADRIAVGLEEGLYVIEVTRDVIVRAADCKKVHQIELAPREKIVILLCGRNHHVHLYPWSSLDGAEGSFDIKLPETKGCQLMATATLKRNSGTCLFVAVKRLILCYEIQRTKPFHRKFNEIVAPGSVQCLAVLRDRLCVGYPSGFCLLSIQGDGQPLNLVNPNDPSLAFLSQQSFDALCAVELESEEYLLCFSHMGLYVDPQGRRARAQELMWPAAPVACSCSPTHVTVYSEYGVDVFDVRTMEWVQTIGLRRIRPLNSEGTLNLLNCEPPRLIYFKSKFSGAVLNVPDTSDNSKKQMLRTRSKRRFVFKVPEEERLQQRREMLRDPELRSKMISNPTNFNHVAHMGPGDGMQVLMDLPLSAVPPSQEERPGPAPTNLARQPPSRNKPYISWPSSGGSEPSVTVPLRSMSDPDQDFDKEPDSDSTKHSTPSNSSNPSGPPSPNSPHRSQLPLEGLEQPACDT
T22 sequence (P42336 whole entry C420R): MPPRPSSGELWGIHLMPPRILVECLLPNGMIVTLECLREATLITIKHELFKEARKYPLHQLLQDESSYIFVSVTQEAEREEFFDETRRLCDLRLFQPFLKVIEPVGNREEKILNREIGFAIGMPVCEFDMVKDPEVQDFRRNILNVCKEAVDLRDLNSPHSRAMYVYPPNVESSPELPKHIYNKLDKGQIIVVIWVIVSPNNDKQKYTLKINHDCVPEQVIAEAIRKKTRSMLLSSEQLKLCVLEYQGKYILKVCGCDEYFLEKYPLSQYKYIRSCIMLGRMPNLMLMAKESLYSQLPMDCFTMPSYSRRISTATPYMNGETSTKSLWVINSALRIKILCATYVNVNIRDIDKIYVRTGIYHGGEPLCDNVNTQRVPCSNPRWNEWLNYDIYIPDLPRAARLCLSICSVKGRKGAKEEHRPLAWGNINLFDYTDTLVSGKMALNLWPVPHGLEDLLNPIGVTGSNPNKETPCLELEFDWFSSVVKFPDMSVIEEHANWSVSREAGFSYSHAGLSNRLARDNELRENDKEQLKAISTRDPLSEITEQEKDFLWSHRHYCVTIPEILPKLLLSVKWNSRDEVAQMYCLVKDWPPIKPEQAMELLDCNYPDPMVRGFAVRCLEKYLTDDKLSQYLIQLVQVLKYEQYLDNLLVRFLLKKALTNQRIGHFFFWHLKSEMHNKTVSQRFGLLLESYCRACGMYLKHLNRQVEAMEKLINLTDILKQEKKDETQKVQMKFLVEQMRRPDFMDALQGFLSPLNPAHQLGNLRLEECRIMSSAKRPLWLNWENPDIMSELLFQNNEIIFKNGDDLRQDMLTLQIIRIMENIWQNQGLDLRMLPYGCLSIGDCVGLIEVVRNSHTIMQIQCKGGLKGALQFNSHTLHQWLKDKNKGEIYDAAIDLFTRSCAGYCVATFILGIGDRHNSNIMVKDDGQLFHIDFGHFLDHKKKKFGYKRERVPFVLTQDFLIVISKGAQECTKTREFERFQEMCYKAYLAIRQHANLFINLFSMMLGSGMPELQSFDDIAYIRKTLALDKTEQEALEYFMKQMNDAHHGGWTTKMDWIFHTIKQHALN
T41 sequence (O75385 whole entry): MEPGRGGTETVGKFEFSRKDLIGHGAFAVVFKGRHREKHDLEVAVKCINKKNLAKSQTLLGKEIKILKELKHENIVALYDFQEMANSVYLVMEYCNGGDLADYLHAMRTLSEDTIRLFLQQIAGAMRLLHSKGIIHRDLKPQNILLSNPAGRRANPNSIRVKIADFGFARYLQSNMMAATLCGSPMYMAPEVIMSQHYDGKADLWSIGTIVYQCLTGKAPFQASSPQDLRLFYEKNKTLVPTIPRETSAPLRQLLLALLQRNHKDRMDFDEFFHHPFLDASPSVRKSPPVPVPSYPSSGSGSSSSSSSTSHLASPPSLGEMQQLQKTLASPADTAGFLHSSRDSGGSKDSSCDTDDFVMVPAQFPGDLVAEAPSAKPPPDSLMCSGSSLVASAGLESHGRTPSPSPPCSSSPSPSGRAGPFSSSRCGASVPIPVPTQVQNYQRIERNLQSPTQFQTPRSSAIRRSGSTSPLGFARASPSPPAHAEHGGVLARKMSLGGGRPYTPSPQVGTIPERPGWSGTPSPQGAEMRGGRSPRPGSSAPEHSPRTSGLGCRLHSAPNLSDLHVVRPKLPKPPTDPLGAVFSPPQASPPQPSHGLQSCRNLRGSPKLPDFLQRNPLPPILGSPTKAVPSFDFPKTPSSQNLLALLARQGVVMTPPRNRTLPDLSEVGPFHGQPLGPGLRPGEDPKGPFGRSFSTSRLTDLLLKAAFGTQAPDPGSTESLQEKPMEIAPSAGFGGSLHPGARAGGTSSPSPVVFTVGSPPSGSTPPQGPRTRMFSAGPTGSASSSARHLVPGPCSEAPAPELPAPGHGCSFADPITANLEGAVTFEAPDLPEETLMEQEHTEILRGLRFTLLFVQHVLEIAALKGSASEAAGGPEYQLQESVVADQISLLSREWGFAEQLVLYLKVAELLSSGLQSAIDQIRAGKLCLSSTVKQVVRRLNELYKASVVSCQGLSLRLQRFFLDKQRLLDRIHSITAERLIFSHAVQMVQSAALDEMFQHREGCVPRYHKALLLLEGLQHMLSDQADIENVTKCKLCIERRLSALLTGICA
T15 sequence (P27448 whole entry): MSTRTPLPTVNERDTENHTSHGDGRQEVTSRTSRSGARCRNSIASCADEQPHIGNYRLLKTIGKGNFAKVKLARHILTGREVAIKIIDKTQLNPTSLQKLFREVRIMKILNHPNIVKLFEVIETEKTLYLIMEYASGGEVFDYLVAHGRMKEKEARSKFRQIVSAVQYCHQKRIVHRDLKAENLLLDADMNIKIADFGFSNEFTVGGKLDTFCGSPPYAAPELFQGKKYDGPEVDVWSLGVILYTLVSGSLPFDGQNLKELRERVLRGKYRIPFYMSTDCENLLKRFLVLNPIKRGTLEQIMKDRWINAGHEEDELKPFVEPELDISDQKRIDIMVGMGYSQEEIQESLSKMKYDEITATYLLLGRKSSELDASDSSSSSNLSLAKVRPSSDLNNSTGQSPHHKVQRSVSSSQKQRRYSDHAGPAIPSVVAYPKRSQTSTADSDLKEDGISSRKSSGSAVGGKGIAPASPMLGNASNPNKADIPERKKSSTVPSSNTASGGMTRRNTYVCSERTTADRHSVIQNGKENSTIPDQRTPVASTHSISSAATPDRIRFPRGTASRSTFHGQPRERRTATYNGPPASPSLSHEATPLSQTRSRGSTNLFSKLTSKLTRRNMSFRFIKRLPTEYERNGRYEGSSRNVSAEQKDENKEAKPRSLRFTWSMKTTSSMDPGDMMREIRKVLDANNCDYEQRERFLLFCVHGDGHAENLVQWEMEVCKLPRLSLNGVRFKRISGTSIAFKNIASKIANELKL
T7 sequence (P19784 whole entry): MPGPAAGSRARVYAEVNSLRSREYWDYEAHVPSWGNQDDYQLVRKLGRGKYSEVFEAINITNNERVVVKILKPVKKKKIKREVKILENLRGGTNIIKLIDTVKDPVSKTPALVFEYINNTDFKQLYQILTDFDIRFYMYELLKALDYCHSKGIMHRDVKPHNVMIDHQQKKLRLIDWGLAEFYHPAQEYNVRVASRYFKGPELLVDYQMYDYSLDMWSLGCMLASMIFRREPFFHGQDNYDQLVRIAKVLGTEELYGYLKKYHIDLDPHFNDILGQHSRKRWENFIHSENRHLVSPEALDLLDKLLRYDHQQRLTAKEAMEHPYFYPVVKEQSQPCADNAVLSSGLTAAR
T23 sequence (P42336 whole entry Q546K): as the sequence (P42336 whole entry C420R) above, with R420C, Q546K counted along it

Which activity at 1 µM [1] does the source give for `Brc1ccc2nccc(Nc3ccc4cn[nH]c4c3)c2c1` [Compound 35, 6-Bromo-N-(1H-indazol-6-yl)quinolin-4-amine] here?
The activity at 1 µM was 78%.

What about the activity at 1 µM (BLK) of the same compound?
The activity at 1 µM was 96%.

What about the activity at 1 µM (CDK4) of the same compound?
Its activity at 1 µM is 78%.

What about the activity at 1 µM (CDK4-cyclinD3) of the same compound?
The activity at 1 µM was 100%.

And the activity at 1 µM (CDK9)?
The activity at 1 µM was 75%.

What about the activity at 1 µM (CLK1) of the same compound?
The activity at 1 µM was 100%.

What about the activity at 1 µM (CSNK2A2) of the same compound?
The activity at 1 µM was 100%.

And the activity at 1 µM (DDR1)?
The activity at 1 µM was 79%.

And the activity at 1 µM (EPHA5)?
Its activity at 1 µM is 100%.

What about the activity at 1 µM (FLT3(N841I)) of the same compound?
The activity at 1 µM was 90%.

And the activity at 1 µM (ICK)?
Its activity at 1 µM is 100%.

What about the activity at 1 µM [2] of the same compound?
The activity at 1 µM was 100%.

And the activity at 1 µM (MAP3K1)?
Its activity at 1 µM is 86%.

What about the activity at 1 µM (MAP4K4) of the same compound?
The activity at 1 µM was 100%.

And the activity at 1 µM (MARK3)?
The activity at 1 µM was 100%.

And the activity at 1 µM (MRCKB)?
The activity at 1 µM was 100%.

And the activity at 1 µM (MUSK)?
Its activity at 1 µM is 100%.

And the activity at 1 µM (MYO3B)?
Its activity at 1 µM is 100%.

What about the activity at 1 µM (NDR1) of the same compound?
The activity at 1 µM was 69%.

What about the activity at 1 µM (NIM1) of the same compound?
Its activity at 1 µM is 88%.

What about the activity at 1 µM (PIK3C2G) of the same compound?
Its activity at 1 µM is 100%.

What about the activity at 1 µM (PIK3CA(C420R)) of the same compound?
Its activity at 1 µM is 100%.

And the activity at 1 µM (PIK3CA(Q546K))?
Its activity at 1 µM is 100%.

And the activity at 1 µM (PIM3)?
Its activity at 1 µM is 100%.

What about the activity at 1 µM (PKMYT1) of the same compound?
The activity at 1 µM was 100%.

What about the activity at 1 µM (PLK1) of the same compound?
Its activity at 1 µM is 100%.

And the activity at 1 µM (PLK3)?
The activity at 1 µM was 100%.

What about the activity at 1 µM (PRKCD) of the same compound?
The activity at 1 µM was 100%.

What about the activity at 1 µM (PRKCQ) of the same compound?
The activity at 1 µM was 88%.

What about the activity at 1 µM (RET(M918T)) of the same compound?
Its activity at 1 µM is 100%.

And the activity at 1 µM (ROCK1)?
The activity at 1 µM was 71%.

What about the activity at 1 µM [3] of the same compound?
Its activity at 1 µM is 100%.

What about the activity at 1 µM (SRC) of the same compound?
The activity at 1 µM was 97%.

What about the activity at 1 µM (STK36) of the same compound?
Its activity at 1 µM is 100%.

And the activity at 1 µM (TAOK3)?
The activity at 1 µM was 97%.

And the activity at 1 µM (TGFBR1)?
The activity at 1 µM was 100%.

What about the activity at 1 µM (TIE2) of the same compound?
Its activity at 1 µM is 100%.

And the activity at 1 µM (TNK2)?
The activity at 1 µM was 95%.

And the activity at 1 µM (TSSK1B)?
Its activity at 1 µM is 100%.

And the activity at 1 µM (TSSK3)?
Its activity at 1 µM is 77%.

What about the activity at 1 µM (ULK1) of the same compound?
Its activity at 1 µM is 91%.

And the activity at 1 µM (ZAK)?
Its activity at 1 µM is 100%.
